Among the data in ChEMBL document CHEMBL4043168, “The design and SAR of a novel series of 2-aminopyridine based LRRK2 inhibitors” (Bioorg Med Chem Lett, 2017) are inhibition values, retold here.

The target in test [1] is Tyrosine-protein kinase Fgr (Homo sapiens) (UniProt P09769). Nature of the test: Inhibition of FGR conserved Lys1 (LIKDDEYNPCQGSKFPIK) in human PBMC at 1 uM.
The target in test [2] is Calcium/calmodulin-dependent protein kinase type II subunit delta (Homo sapiens) (UniProt Q13557). Put plainly: Inhibition of CaMK2d labeling at conserved Lys2 (DLKPENLLLASK) in human PBMC at 1 uM.
Test [3] addresses Phosphatidylinositol 5-phosphate 4-kinase type-2 gamma (Homo sapiens) (UniProt Q8TBX8). Nature of the test: Inhibition of PIP4K2C ATP binding site (TLVIKEVSSEDIADMHSNLSNYHQYIVK) in human PBMC at 1 uM.
The target in test [4] is STE20-like serine/threonine-protein kinase (Homo sapiens) (UniProt Q9H2G2). Nature of the test: Inhibition of SLK conserved Lys2 (DLKAGNILFTLDGDIK) in human PBMC at 0.1 uM.
Test [5] concerns the target Ribosomal protein S6 kinase alpha-1 (Homo sapiens) (UniProt Q15418). Nature of the test: Inhibition of RSK1 conserved Lys2 (DLKPENILLDEEGHIK) in human PBMC at 1 uM. To be noted: pooled result: one value given for 4 cell lines, strains, targets or settings.
Test [6] addresses Ribosomal protein S6 kinase alpha-3 (Homo sapiens) (UniProt P51812). Put plainly: Inhibition of RSK2 conserved Lys2 (DLKPENILLDEEGHIK) in human PBMC at 0.1 uM.
Test [7] concerns the target Ribosomal protein S6 kinase alpha-5 (Homo sapiens) (UniProt O75582). Nature of the test: Inhibition of MSK1 domain1 conserved Lys2 (DIKLENILLDSNGHVVLTDFGLSK) in human PBMC at 0.1 uM.
In test [8] the target is Phosphatidylinositol 5-phosphate 4-kinase type-2 alpha (Homo sapiens) (UniProt P48426). Put plainly: Inhibition of PIP4K2A ATP binding site (AKELPTLKDNDFINEGQK) in human PBMC at 0.1 uM.
Test [9] addresses MAP/microtubule affinity-regulating kinase 3 (Homo sapiens) (UniProt P27448). Nature of the test: Inhibition of MARK3 conserved Lys2 (DLKAENLLLDADMNIK) in human PBMC at 1 uM.
The target in test [10] is Mitogen-activated protein kinase 1 (Homo sapiens) (UniProt P28482). Put plainly: Inhibition of Erk2 ATP binding site (DLKPSNLLLNTTCDLK) in human PBMC at 1 uM.
Test [11] deals with Calcium/calmodulin-dependent protein kinase type 1D (Homo sapiens) (UniProt Q8IU85). Nature of the test: Inhibition of CaMK1d labeling at conserved Lys2 (DLKPENLLYYSQDEESK) in human PBMC at 1 uM.
For test [12], the target named is Serine/threonine-protein kinase WNK2 (Homo sapiens) (UniProt Q9Y3S1). Nature of the test: Inhibition of Wnk2 ATP binding site (GSFKTVYK) in human PBMC at 1 uM.
Test [13] addresses Serine/threonine-protein kinase Nek4 (Homo sapiens) (UniProt P51957). Put plainly: Inhibition of NEK4 conserved Lys2 (DLKTQNVFLTR) in human PBMC at 1 uM.
In test [14] the target is Interleukin-1 receptor-associated kinase 1 (Homo sapiens) (UniProt P51617). Put plainly: Inhibition of IRAK1 conserved Lys2 (AIQFLHQDSPSLIHGDIKSSNVLLDER) in human PBMC at 1 uM.
For test [15], the target named is Mitogen-activated protein kinase kinase kinase 3 (Homo sapiens) (UniProt Q99759). Nature of the test: Inhibition of MAP3K3 conserved Lys2 (DIKGANILR) in human PBMC at 0.1 uM.
Test [16] concerns the target Mitogen-activated protein kinase kinase kinase 20 (Homo sapiens) (UniProt Q9NYL2). Nature of the test: Inhibition of ZAK conserved Lys1 (WISQDKEVAVKK) in human PBMC at 0.1 uM.
The target in test [17] is Serine/threonine-protein kinase Nek6 (Homo sapiens) (UniProt Q9HC98). Nature of the test: Inhibition of NEK6 conserved Lys2 (DIKPANVFITATGVVK) in human PBMC at 0.1 uM.
Test [18] addresses T1, Mitogen-activated protein kinase kinase kinase 5 (Homo sapiens) (UniProt Q99683).
T1 sequence (whole entry): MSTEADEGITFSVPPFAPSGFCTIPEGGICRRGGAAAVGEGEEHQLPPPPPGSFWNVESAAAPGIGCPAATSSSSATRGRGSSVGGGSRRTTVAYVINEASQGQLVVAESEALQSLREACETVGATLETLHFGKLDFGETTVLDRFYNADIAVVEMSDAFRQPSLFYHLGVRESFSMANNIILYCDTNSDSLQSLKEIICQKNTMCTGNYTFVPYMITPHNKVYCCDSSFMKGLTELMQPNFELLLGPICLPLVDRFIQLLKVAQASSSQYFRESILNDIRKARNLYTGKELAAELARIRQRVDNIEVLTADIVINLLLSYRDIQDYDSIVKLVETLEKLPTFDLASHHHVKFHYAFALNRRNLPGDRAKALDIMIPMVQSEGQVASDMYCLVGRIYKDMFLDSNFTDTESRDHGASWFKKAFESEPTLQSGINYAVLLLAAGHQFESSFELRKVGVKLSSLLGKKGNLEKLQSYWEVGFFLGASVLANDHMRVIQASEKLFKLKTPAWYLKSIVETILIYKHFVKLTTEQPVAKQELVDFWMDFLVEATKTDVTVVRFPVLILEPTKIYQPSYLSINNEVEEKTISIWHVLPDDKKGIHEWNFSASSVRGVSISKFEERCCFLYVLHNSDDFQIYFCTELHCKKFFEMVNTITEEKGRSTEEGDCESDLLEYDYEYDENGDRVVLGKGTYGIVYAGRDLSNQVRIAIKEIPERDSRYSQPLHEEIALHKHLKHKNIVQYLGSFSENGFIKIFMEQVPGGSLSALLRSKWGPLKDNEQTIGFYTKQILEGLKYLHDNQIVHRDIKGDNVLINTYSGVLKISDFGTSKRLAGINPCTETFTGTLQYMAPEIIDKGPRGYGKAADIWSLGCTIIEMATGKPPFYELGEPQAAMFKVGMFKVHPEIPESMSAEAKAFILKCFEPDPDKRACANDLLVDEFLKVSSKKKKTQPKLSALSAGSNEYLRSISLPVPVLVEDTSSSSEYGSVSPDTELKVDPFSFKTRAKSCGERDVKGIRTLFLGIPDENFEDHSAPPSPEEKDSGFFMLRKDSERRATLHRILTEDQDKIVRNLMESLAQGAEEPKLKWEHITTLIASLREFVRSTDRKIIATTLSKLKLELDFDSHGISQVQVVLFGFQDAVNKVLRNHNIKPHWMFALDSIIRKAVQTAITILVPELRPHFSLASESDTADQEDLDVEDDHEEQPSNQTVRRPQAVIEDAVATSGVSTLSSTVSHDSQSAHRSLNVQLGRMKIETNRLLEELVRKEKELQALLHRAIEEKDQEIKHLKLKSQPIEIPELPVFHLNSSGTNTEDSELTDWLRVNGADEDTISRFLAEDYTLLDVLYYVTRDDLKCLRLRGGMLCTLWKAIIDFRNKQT
Put plainly: Inhibition of MAP3K5 conserved Lys2 (DIKGDNVLINTYSGVLK) in human PBMC at 1 uM.

Structures are written as SMILES.

Mitogen-activated protein kinase kinase kinase 20 (Homo sapiens), sequence (Q9NYL2 2-800 limits assumed): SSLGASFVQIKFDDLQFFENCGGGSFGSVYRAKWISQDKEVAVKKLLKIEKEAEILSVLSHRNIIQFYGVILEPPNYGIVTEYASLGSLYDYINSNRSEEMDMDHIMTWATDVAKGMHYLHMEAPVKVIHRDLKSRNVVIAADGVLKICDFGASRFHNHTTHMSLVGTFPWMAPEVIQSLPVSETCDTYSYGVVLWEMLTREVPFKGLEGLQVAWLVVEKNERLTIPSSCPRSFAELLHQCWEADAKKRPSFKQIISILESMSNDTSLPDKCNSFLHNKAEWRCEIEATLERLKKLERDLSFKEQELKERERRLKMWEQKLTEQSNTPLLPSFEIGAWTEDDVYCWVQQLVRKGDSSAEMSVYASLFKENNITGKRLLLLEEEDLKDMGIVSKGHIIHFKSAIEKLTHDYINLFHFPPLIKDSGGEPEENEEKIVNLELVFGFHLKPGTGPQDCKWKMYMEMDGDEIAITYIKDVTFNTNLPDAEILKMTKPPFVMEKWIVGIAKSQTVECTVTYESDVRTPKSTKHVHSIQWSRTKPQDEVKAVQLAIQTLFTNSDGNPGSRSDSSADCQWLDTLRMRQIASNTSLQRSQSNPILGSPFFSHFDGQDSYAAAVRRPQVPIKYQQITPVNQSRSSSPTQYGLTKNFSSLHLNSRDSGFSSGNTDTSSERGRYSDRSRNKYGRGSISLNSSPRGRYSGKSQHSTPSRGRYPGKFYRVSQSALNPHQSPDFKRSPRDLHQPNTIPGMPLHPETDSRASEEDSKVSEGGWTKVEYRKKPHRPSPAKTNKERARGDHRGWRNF
Calcium/calmodulin-dependent protein kinase type II subunit delta (Homo sapiens), sequence (Q13557 whole entry): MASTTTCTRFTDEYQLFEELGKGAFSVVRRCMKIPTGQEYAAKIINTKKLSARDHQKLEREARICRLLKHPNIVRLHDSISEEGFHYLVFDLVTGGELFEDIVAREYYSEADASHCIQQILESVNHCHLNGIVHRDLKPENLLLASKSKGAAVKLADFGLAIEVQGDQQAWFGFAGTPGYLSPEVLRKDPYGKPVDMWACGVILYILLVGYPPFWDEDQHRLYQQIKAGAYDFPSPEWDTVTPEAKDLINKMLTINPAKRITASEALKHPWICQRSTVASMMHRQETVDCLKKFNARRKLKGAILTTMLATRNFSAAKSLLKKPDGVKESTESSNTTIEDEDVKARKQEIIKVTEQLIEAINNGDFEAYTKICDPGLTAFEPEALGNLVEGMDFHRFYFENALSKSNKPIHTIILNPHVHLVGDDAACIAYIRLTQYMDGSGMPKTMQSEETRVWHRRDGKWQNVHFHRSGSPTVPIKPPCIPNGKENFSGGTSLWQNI
Ribosomal protein S6 kinase alpha-5 (Homo sapiens), sequence (O75582 whole entry, looked up, the tested form may be a part): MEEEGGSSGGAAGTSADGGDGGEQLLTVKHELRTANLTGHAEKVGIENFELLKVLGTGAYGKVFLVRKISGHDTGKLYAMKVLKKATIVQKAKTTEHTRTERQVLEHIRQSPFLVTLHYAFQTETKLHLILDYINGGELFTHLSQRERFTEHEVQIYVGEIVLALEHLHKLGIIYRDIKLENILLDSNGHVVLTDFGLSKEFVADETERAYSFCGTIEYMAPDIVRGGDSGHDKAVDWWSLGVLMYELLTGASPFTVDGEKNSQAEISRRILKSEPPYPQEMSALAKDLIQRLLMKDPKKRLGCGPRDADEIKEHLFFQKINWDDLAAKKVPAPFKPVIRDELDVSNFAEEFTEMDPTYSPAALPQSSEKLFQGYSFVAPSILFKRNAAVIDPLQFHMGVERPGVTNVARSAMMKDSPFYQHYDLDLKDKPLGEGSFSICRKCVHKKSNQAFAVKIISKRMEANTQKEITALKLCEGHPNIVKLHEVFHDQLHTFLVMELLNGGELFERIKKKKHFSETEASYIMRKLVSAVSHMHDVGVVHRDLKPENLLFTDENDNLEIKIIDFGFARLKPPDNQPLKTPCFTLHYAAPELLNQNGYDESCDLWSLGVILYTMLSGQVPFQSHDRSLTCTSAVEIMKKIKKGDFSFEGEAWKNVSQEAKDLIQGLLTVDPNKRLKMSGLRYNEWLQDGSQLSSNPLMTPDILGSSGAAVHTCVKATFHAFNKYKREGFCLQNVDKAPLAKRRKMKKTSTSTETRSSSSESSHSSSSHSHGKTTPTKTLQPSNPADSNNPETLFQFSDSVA
STE20-like serine/threonine-protein kinase (Homo sapiens), sequence (Q9H2G2 whole entry, looked up): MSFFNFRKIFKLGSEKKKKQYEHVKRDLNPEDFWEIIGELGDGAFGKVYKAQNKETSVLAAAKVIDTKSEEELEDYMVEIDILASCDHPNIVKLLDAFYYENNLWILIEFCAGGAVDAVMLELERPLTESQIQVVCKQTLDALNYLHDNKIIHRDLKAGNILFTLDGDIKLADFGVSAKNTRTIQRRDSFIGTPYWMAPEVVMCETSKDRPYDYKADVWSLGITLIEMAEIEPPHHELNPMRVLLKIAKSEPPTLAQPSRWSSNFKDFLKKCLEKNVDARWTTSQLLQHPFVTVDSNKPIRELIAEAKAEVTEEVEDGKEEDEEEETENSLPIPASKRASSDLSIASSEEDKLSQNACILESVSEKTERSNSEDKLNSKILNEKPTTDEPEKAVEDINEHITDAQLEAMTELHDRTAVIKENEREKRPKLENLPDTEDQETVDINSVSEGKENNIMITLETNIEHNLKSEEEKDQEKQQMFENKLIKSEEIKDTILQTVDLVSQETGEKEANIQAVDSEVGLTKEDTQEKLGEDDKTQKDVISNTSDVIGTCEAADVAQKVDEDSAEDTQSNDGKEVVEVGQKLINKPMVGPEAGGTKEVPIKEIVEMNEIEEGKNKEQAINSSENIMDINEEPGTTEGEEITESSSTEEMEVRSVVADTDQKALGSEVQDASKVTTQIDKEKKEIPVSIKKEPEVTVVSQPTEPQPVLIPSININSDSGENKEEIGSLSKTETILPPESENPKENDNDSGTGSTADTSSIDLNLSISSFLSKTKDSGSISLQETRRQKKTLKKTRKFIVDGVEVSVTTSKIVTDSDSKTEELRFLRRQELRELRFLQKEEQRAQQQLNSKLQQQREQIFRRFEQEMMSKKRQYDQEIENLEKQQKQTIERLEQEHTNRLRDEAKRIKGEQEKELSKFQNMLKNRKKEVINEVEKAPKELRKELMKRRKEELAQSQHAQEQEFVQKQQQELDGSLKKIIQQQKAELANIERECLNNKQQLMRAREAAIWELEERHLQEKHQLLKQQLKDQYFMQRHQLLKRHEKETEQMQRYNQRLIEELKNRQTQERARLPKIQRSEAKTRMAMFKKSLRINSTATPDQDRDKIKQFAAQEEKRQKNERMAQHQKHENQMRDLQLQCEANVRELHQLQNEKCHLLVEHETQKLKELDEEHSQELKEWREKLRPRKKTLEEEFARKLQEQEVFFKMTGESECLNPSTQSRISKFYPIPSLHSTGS
Calcium/calmodulin-dependent protein kinase type 1D (Homo sapiens), sequence (Q8IU85 whole entry, looked up): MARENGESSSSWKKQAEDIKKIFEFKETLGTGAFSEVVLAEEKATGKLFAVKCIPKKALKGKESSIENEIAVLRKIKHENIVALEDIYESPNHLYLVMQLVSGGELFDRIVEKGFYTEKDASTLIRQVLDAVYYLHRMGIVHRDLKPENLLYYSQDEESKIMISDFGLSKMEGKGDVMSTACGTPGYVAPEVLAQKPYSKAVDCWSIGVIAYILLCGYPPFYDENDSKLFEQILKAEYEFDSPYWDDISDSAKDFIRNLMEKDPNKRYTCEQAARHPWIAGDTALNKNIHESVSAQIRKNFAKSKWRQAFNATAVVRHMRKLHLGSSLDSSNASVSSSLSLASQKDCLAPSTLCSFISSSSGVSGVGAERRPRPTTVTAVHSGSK
Ribosomal protein S6 kinase alpha-3 (Homo sapiens), sequence (P51812 whole entry, the tested form may be a part): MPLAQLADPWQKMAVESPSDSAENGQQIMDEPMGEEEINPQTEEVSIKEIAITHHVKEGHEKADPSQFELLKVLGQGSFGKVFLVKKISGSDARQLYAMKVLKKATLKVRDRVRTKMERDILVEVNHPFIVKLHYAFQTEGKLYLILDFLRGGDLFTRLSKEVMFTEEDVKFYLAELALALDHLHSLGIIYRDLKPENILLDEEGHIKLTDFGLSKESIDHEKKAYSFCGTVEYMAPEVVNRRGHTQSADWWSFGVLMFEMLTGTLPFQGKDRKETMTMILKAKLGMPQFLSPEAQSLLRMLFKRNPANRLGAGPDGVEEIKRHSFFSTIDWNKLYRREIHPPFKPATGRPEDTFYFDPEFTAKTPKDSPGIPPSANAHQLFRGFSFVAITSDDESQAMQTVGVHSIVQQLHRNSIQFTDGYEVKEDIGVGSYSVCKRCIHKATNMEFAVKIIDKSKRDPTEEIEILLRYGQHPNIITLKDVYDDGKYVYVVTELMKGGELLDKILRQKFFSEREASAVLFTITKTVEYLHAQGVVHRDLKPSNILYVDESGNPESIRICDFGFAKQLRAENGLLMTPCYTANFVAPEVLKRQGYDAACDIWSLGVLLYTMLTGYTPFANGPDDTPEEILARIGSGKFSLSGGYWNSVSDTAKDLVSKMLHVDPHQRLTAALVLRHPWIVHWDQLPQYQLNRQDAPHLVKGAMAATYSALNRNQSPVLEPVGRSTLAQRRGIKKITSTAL
Phosphatidylinositol 5-phosphate 4-kinase type-2 gamma (Homo sapiens), sequence (Q8TBX8 whole entry): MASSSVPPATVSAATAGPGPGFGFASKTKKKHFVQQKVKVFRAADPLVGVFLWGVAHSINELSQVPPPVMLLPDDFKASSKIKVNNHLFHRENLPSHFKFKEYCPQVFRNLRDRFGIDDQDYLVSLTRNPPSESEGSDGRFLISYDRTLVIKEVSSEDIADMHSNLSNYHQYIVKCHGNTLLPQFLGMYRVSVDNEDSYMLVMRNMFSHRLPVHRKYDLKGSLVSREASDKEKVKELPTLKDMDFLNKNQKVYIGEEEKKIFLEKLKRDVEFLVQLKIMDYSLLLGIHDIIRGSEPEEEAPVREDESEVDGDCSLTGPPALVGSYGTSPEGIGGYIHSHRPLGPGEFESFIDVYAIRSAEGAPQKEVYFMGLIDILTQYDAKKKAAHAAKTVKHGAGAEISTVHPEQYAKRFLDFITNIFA

On to `CC(C)n1cc(-c2cc(-c3ccc(CN4CCOCC4)cc3)cnc2N)nn1`, for which the inhibition in test [1] is -8.4%; in test [2] it was -0.4%; in test [3], 6.4%; in [4] it was 24.4%; in test [5], 10.2%; in test [6], 11.8%. In addition, the inhibition in [7] is 33.6%; in test [8], 10.3%; in test [9], 28.8%; in [10] it was 14.9%; in test [11], -0.9%; in [12], 14.2%. Further, the inhibition is -1.7% in [13]; 17.3% in test [14]; 23.2% in [15]; 11.3% in test [16]; -4.8% in [17]; 25.3% in test [18].

As usually defined, the inhibition is the change of the read-out against control, counted positive when it falls.
